In US20040147562A1, “Methods of treating conditions associated with an EDG-1 receptor” (priority 2002, published 2004):
Read-outs that look alike come from different tables or passages of the source.

Experiments:
[1] = target: human Edg-1 receptors (Homo sapiens, UniProt P21453); experiment: Intracellular calcium (FLIPR) assay, HTC cells expressing Edg-1; assay type: cell-based; parameters: Edg 1 IC50 μM; fused on or other part: in the chimera reading: the third intracellular loop (i3) of Edg-3 (S1PR3) in place of Edg-1's own
Procedure: (§1) The compounds were tested in HTC cells expressing human Edg-1 receptors. […] The compounds were tested in this recombinant system first, and subsequently tested in cell lines expressing Edg-1 (in addition to other Edg receptors).
(§2) […] receptors such as Edg-1, couple to calcium effector pathways, and result in increases in intracellular calcium following receptor activation (An, 1998, J. Cell Biochem. Supp 30-31:147-157). This biological response lends itself to a very efficient, high-throughput screen using a Fluorescence Imaging Plate Reader (FLIPR; Molecular Devices, Sunnyvale, Calif.). The FLIPR system is a real-time, cell-based assay system with continuous fluorescence detection using a cooled CCD camera. The FLIPR system was used to develop an Edg-1 receptor screen. Rat hepatoma cells stably expressing Edg-1/3i3 chimera or Edg-1 and Gqi were plated on 384-well plates and loaded with a calcium dye loading kit (Molecular Devices, Sunnyvale, Calif.) for 1 hour at room temperature. Cells were then placed on the FLIPR^384 (Molecular Devices, Sunnyvale, Calif.) and excited by an argon laser at 488 nm. The data for the entire 384-well plate was updated every second. An integrated robotic pipettor allowed for simultaneous compound addition into each individual well in the plate.

[2] = test system: human umbilical vein endothelial cells; experiment: Trans-matrigel chemotaxis / invasion assay with HUVECs (modified Boyden chamber); assay type: cell-based; details: HUVECs, trans-matrigel; FIG. 10
Procedure: In addition to Edg-1, other Edg receptors are also implicated in S1P stimulated chemotaxis, including Edg-3 and Edg-6. To assess the relative roles of the Edg-1 receptors and Edg-3 receptors in S1P stimulated chemotaxis, the ability of S1P to evoke trans-matrigel chemotaxis was tested in the presence of the Edg-1 antagonist 101, the Edg-3 antagonist 301, and the combination of 101 and 301. These experiments were performed according to the migration and invasion assay protocols described in Section 7.12, below. The Edg-3 antagonist 301, 3-Methyl-2-phenyl-quinoline-4-carboxylic acid 4-fluoro-benzylamide, is extensively described in co-pending U.S. application Ser. No. 10/390,426, which is incorporated by reference in its entirety. 301 is identified as compound 101 in U.S. application Ser. No. 10/390,426. Further, 301 is commercially available from Specs (The Netherlands) as compound number AK-968/12971392.
(§3) S1P is a strong chemoattractant to human PBMCs. […] Several migration assays were performed to test this hypothesis and to determine the effect of Edg-1 agonists and antagonists on S1P mediated chemotaxis. The migration assays were performed according to the protocol described in Section 7.12, below. The results of theses assays are presented in FIG. 6, FIG. 7, FIG. 8, FIG. 9 and FIG. 13.
(§4) Cells were plated in a 24 well format using Fluoroblok filter insert plates ([…] pore size) or Fluoroblok matrigel coated filter insert plates (Becton Dickinson, San Diego, Calif.). The assay was a modified Boyden Chamber assay in which a cell suspension (1×10^5 cells/ml) was prepared in serum free medium and added to the top chamber. LPA or S1P (doses ranged from 0.1-10 μM in serum free medium) was added to the bottom chamber. Following a 20-24 hour incubation period, the number of cells migrating or invading into the lower chamber was quantitated by transferring the filter insert into a fresh 24-well plate containing 4 μg/ml calcein AM (Molecular Probes, Sunnyvale, Calif.) in Hank's Balanced Salt Solution and staining for one hour.
(§5) Detection was via fluorescent readout at 450 nm excitation/530 nm emission using a fluorimeter. The level of fluorescence correlated with cell number.

[3] = test system: mouse splenic CD4 T cells; experiment: Lymphocyte migration in mouse dorsal air-pouch model; assay type: in vivo; details: CD4 T cells treated ex vivo, given intraperitoneally, lavage after 24 hours; S1P 1 μM; FIG. 15
Procedure: To test migration of mouse T cells in vivo, the ability of exodus-2 to attract mouse lymphocytes was assessed in the mouse dorsal air-pouch model. In these experiments, 0.5 ml 1 μM exodus-2 was introduced into a dorsal air-pouch produced by injecting 5 ml of filtered air subcutaneously. Mouse splenic CD4 T cells were fluorescently labeled with FM-DiI (Molecular Probes, Inc., Eugene, Oreg.), then treated with S1P (1 μM), 102, or 104. The treated CD4T cells were introduced into the peritoneal cavity. After 24 hours, lavage (1 ml) from the dorsal air pouch was assayed for fluorescence.

[4] = test system: mouse T cells; experiment: Mouse T cell migration in Transwell chambers with matrigel; assay type: cell-based; details: stimulant in bottom chamber; S1P at high concentrations; FIG. 14
Procedure: To further elucidate the role of the Edg-1 receptor in lymphocyte trafficking, migration of mouse T cells was analyzed in both in vitro and in vivo models. Migration of mouse T cells was first tested in Transwell chambers (Costar, Cambridge, Mass.) with polycarbonate fibers having a pore width of 8 μm, separated by a layer of matrigel. Stimulants S1P or exodus-2 were separately added to the bottom chamber. The effects of exodus-2 were tested alone, with S1P, and with S1P and Edg-1 antagonists 101 and 102.

[5] = test system: human peripheral blood mononuclear cells; experiment: Migration of human peripheral blood mononuclear cells; assay type: cell-based; details: chemoattractant; FIG. 9, 13
Procedure: as §3, §4, §5
Human PBMCs are isolated from the buffy coats of healthy donors from the Stanford Blood Center. […]

[6] = test system: murine CD4 T cells; experiment: Murine CD4 T cell chemotactic response to exodus-2; assay type: cell-based
Procedure: To assess this modulation and to test the effects of Edg-1 agonists and antagonists on this effect, murine CD4 T cells chemotactic responses to exodus-2 were tested in the presence of S1P and the Edg-1 agonist 104. These experiments were performed according to the migration and invasion assay protocols described in Section 7.12, below.
The effects of Edg-1 antagonists on S1P regulation of the chemotactic response to exodus-2 were also assessed. This experiment was performed according to the migration and invasion assay protocols described in Section 7.12, below. […] Thus, these Edg-1 antagonists can antagonize both aspects of the regulation by S1P of exodus-2-mediated chemotaxis.
as §4, §5

[7] = target: T1, Edg-6 (Homo sapiens, UniProt O95977); experiment: Intracellular calcium (FLIPR) assay, HTC cells expressing Edg-6; assay type: cell-based; details: Table 2; S1P-stimulated
T1 construct: expressed in transfected cells; host or cells: HTC rat hepatoma cells
T1 sequence (O95977 1-384): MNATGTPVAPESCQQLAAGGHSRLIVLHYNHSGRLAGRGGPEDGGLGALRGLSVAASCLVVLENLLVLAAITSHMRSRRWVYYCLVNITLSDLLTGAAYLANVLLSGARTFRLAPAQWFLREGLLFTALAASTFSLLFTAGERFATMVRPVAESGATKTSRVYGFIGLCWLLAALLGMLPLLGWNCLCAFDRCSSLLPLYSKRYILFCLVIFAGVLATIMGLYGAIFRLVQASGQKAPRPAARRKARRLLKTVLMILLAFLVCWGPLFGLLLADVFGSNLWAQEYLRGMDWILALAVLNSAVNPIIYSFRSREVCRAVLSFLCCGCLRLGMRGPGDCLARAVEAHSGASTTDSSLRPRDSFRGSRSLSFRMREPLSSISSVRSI

[8] = test system: human Edg-1 receptors; experiment: Intracellular calcium (FLIPR) assay, HTC cells expressing Edg-1; assay type: cell-based; details: Edg-1 relative to other Edg receptors, inhibition (Table 2)
Procedure: as §1, §2

[9] = target: T2, Edg-2 (Homo sapiens, UniProt Q92633); experiment: Intracellular calcium (FLIPR) assay, HTC cells expressing Edg-2; assay type: cell-based; details: Table 2; LPA-stimulated
T2 construct: expressed in transfected cells; host or cells: HTC rat hepatoma cells
T2 sequence (Q92633 whole entry): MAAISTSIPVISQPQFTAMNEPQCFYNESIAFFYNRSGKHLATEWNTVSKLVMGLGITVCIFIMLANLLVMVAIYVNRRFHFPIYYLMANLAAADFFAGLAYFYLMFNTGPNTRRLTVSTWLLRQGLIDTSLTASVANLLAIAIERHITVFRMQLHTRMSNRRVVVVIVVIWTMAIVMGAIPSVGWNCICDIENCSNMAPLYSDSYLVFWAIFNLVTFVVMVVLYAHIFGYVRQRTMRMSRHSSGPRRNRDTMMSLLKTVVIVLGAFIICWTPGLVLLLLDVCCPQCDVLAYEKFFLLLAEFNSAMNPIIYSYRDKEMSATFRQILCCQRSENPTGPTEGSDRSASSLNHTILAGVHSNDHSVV

[10] = target: T3, Edg-8 (Homo sapiens, UniProt Q9H228); experiment: Intracellular calcium (FLIPR) assay, HTC cells expressing Edg-8; assay type: cell-based; details: Table 2; S1P-stimulated
T3 construct: expressed in transfected cells; host or cells: HTC rat hepatoma cells
T3 sequence (Q9H228 whole entry): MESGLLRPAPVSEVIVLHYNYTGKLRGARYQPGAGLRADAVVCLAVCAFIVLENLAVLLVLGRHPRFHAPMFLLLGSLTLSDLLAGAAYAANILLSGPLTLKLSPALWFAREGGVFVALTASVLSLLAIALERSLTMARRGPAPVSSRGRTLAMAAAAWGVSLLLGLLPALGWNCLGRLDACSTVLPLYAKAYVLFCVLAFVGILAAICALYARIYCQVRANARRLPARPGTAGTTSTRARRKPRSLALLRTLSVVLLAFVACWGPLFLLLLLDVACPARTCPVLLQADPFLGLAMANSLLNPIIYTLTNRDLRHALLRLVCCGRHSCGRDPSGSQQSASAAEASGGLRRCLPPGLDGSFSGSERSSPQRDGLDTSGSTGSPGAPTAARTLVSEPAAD

[11] = target: Edg-4 (Homo sapiens, UniProt Q9HBW0); experiment: Intracellular calcium (FLIPR) assay, HTC cells expressing Edg-4; assay type: cell-based; details: Table 2; LPA-stimulated
Chain of Edg-4 (Q9HBW0 1-340 limits assumed): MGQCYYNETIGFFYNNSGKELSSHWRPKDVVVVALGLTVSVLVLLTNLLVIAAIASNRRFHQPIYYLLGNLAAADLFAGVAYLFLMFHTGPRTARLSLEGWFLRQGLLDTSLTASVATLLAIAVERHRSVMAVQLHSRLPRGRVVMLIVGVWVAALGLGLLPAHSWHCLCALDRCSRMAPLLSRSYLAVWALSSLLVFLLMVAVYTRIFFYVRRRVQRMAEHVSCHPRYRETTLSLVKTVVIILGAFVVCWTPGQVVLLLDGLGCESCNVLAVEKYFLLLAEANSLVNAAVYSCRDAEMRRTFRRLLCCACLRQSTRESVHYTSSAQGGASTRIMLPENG

[12] = target: T4, Edg-5 (Homo sapiens, UniProt O95136); experiment: Intracellular calcium (FLIPR) assay, HTC cells expressing Edg-5; assay type: cell-based; details: Table 2; S1P-stimulated
T4 construct: expressed in transfected cells; host or cells: HTC rat hepatoma cells
T4 sequence (O95136 whole entry): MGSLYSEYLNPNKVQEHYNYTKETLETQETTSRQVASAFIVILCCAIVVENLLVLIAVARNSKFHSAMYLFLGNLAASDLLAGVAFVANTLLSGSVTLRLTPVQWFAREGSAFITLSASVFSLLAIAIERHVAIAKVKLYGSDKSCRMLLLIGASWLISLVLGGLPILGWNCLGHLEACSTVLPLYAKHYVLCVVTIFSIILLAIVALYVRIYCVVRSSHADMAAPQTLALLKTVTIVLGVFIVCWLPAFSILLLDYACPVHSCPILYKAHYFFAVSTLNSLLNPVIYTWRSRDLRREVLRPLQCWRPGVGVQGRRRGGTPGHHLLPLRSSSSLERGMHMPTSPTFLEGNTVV

[13] = target: T5, Edg-7 (Homo sapiens, UniProt Q9UBY5); experiment: Intracellular calcium (FLIPR) assay, HTC cells expressing Edg-7; assay type: cell-based; details: Table 2; LPA-stimulated
T5 construct: expressed in transfected cells; host or cells: HTC rat hepatoma cells
T5 sequence (Q9UBY5 1-353): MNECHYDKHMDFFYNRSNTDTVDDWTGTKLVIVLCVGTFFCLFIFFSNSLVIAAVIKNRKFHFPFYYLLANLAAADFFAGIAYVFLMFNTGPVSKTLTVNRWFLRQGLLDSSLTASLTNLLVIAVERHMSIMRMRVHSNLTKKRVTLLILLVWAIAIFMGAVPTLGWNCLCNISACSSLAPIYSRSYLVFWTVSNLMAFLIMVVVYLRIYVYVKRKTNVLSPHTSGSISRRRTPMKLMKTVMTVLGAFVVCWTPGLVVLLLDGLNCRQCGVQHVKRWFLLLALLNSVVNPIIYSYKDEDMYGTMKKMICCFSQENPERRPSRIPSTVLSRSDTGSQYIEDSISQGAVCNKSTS

[14] = target: T6, Edg-3 (Homo sapiens, UniProt Q99500); experiment: Intracellular calcium (FLIPR) assay, HTC cells expressing Edg-3; assay type: cell-based; details: Table 2; S1P-stimulated
T6 construct: expressed in transfected cells; host or cells: HTC rat hepatoma cells
T6 sequence (Q99500 whole entry): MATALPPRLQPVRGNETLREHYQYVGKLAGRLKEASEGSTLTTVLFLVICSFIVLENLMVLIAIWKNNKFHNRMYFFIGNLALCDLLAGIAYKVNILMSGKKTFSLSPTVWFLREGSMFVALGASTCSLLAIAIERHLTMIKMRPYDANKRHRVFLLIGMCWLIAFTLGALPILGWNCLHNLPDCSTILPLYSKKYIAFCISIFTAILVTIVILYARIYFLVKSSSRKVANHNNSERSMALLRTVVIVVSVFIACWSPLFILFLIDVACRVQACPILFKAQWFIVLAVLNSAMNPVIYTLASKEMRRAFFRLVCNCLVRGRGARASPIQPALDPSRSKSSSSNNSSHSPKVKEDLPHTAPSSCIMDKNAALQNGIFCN

[15] = Table 1, Edg-1 modulators, read-out: IC50

`O=C(c1cccnc1)N1N=C(C(F)(F)F)CC1(O)c1ccc(Cl)cc1` (centres unmarked) [Compound 105] gave an IC50 [1, 15] of 1.29 µM.

Work on `Nc1ccc(C(=O)N2N=C(c3ccccc3)CC2(O)C(F)(F)F)cc1` (centres unmarked) [Compound 108] yielded an IC50 [1, 15] of 3.56 µM.

With `O=C(c1cccnc1)N1N=C(c2ccccc2)CC1(O)C(F)(F)F` (centres unmarked) [Compound 107] the IC50 [1, 15] was 3.51 µM.

Molecule `Nc1ccc(C(=O)N2N=C(C(F)(F)F)CC2(O)c2ccc(Br)cc2)cc1` (centres unmarked) [Compound 110] has an IC50 [1, 15] of 4.58 µM.

With `Cc1c(-c2ccccc2)nc2ccccc2c1C(=O)NCc1ccc(F)cc1` [Compound 301, 3-Methyl-2-phenyl-quinoline-4-carboxylic acid 4-fluoro-benzylamide, reference compound] the “inhibition of S1P-stimulated chemotaxis” value [2] was “inhibit S1P-stimulated chemotaxis”.

With `CCCCCCCCCCCCC/C=C/[C@@H](O)[C@@H](N)COP(=O)(O)O` [Compound S1P, sphingosine-1-phosphate, reference compound] the “migration of treated lymphocytes to exodus-2 in dorsal air-pouch” value [3] was “desensitizes the lymphocytes to attraction by exodus-2”, the “stimulation of T cell migration by stimulant alone” value [4] was “do not stimulate T cell migration” and the “migration of human peripheral blood mononuclear cells” value [5] was “attracts human PMBCs in a dose dependent manner”. The “effect on chemotaxis of murine CD4 T cells to exodus-2” value ([6]; low and high concentrations desensitize, moderate stimulate, FIG. 11) was “bell-shaped dose dependant response curve”.

For `O=C(c1ccccc1F)N1N=C(C(F)(F)F)CC1(O)c1ccc(Cl)cc1` (centres unmarked) [Compound 113], the IC50 [1, 15] was 6.02 µM.

For `CCCCCCCCc1ccc(CCC(N)(CO)CO)cc1` [FTY720, reference compound], the “effect on S1P-mediated desensitization of the chemotactic response to exodus-2” value ([6]; high concentrations of S1P, FIG. 12) was “reverse S1P-mediated desensitization” and the “effect on S1P-mediated stimulation of the chemotactic response to exodus-2” value ([6]; moderate concentrations of S1P, FIG. 12) was “inhibit S1P-mediated stimulation”.

`COc1cc2c(cc1OC)[C@H]1CN3CCc4cc(OC)c(OC)cc4[C@H]3CN1CC2` [Compound 103] was tested, and the IC50 [7] was > 20 µM, the “Fold Selectivity” value [8] was >27.0 Fold and the IC50 [9] was > 20 µM. For the same molecule, the IC50 [10] was > 20 µM, the IC50 [11] was > 20 µM and the IC50 [12] was > 20 µM. For the same molecule, the IC50 [13] was > 20 µM, the IC50 ([1]; Table 2, inhibition of S1P response, read-out: Edg 1 IC50) was 0.74 µM and the IC50 [14] was > 20 µM.

`O=C(c1ccccc1)N1N=C(c2ccccc2)CC1(O)C(F)(F)F` (centres unmarked) [Compound 111] was tested, and the IC50 [1, 15] was 5.08 µM.

`CCc1ccc(C2=NN(C(=O)c3cccnc3)C(O)(C(F)(F)F)C2)cc1` (centres unmarked) [Compound 106] gave an IC50 [1, 15] of 1.74 µM.

Molecule `Nc1ccc(C(=O)N2N=C(c3ccc(F)cc3)CC2(O)C(F)(F)F)cc1` (centres unmarked) [Compound 109] has an IC50 [1, 15] of 3.94 µM.

With `O=C(c1cccnc1)N1N=C(c2ccc(F)cc2)CC1(O)C(F)(F)F` (centres unmarked) [Compound 112] the IC50 [1, 15] was 5.92 µM.

B1: exodus-2: cytokine, chemoattractant for lymphocytes (protein, UniProt O00585 24-134, looked up)
C-C motif chemokine 21: SDGGAQDCCLKYSQRKIPAKVVRSYRKQEPSLGCSIPAILFLPRKRSQAELCADPKELWVQQLMQHLDKTPSPQKPAQGCRKDRGASKTGKKGKGSKGCKRTERSQTPKGP
In the case of B1, the “stimulation of T cell migration by stimulant alone” value [4] is reported as “does stimulate T cell migration”.
